The source made the active and inactive calls. No cut-off for these calls is given here.
Experiments:
[1] = test system: GTPase KRas (Homo sapiens), P01116 [G12C]; experiment: Binding affinity to KRAS G12C mutant (unknown origin) by traditional Western blot CETSA analysis
[2] = test system: GTPase KRas (Homo sapiens), P01116 [G12C]; experiment: Binding affinity to HiBiT-tagged KRAS G12C mutant in human NCI-H358 cells assessed as stabilization by measuring luminescence signal by BiTSA-ITDR assay; type: cell-based
[3] = biological target: T1, 5'-AMP-activated protein kinase subunit beta-1 (Homo sapiens) (UniProt Q9Y478); experiment: Binding affinity to HiBiT-tagged PRKAB1 (unknown origin) assessed as shift in melting/aggregation temperature by luminescence based BiTSA assay
T1 sequence (whole entry): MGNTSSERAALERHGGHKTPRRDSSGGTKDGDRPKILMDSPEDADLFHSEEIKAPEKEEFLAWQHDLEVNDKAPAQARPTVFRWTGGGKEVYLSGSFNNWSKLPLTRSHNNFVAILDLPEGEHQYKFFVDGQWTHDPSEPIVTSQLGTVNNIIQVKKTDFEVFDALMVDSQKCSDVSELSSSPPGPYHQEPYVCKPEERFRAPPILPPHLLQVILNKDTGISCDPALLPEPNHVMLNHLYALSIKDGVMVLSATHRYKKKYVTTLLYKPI

[4] = test system: Cellular tumor antigen p53 (Homo sapiens), P04637 [R273H]; experiment: Binding affinity to HiBiT-tagged p53 R273H mutant in human MDA-MB-468 cells assessed as p53 refolding by measuring change in melting temperature at 2.5 to 10 uM by luminescence based BiTSA assay; type: cell-based; details: dose 2.5-10 µM
[5] = test system: Cellular tumor antigen p53 (Homo sapiens), P04637 [R273H]; experiment: Binding affinity to HiBiT-tagged p53 R273H mutant in human MDA-MB-468 cells assessed as p53 refolding by measuring change in melting temperature at 25 to 100 uM by luminescence based BiTSA assay; type: cell-based; details: dose 25-100 µM
[6] = biological target: Mitogen-activated protein kinase 14 (Homo sapiens) (UniProt Q16539); experiment: Binding affinity to HiBiT-tagged MAPK14 (unknown origin) assessed as shift in melting/aggregation temperature at 10 uM by luminescence based BiTSA assay
Chain of Mitogen-activated protein kinase 14 (Homo sapiens) (Q16539 whole entry): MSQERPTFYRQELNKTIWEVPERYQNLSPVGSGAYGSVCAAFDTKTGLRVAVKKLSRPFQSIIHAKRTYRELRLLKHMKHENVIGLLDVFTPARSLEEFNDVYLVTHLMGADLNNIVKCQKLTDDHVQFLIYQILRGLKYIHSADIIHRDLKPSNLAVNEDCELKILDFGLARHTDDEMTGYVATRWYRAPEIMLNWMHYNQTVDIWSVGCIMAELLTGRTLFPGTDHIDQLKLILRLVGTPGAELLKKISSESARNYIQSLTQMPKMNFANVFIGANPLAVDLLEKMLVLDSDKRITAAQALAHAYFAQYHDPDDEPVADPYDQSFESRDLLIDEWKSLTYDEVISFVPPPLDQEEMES

Chain of GTPase KRas (Homo sapiens), P01116 [G12C] (P01116 whole entry G12C): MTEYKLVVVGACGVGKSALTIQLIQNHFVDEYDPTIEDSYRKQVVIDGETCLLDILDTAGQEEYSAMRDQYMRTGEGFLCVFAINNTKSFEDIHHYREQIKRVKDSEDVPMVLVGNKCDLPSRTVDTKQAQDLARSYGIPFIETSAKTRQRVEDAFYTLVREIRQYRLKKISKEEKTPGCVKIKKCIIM

In the case of C=CC(=O)N1CCN(c2ncnc3c(F)c(-c4c(O)cccc4F)c(Cl)cc23)CC1, the Activity [1] is reported as “Active” and the Activity [2] is reported as “inactive”.
For O[C@@H]1CO[C@H]2[C@@H]1OC[C@H]2Oc1nc2nc(-c3ccc(-c4ccccc4)cc3)c(Cl)cc2[nH]1, the Activity [3] was “inactive”.
In the case of CN(C)CCCNc1nc(CN2CCN(C(c3ccc(Cl)cc3)c3ccc(Cl)cc3)CC2)nc2ccccc12, the Activity [4] is reported as “inactive”.
In the case of COCC1(CO)C(=O)C2CCN1CC2 (stereo unspecified), the Activity [5] is reported as “inactive”.
For Cn1c(NC[C@@H](N)Cc2ccccc2)nc(-c2ccncc2)c(-c2ccc3ccccc3c2)c1=O, the Tm [6] was 12.4 °C.
